Where two headings read alike, the source gives them in different places.

The test system of series [1] is sensory neuron cells from CD34+-derived induced pluripotent stem cells. Nature of the series: Morphology / axon formation of induced sensory neuron cells. Type of series: cell-based, human. The note with it: for axon formation: low (3 μM), medium (6 μM) and high (10 μM) concentration.
Procedure: After obtaining the above-mentioned various sensory nerve precursor cells, the medium was removed, and cells were washed with DPBS, and then treated with 0.05% trypsin/EDTA at 37° C. for 5 minutes, and then cell digestion was terminated with DMEM. After the cells were washed and centrifuged, the cells were re-seeded in a T25 culture flask at 1-5×10^5 per plate, and the sensory nerve precursor cells were induced to differentiate and expand into mature sensory neurons by using sensory neuron cell medium. The conditions for cell culture were 37° C., 5% CO2.
Series [2] has the same test system. In words: Q-PCR of marker genes in induced sensory neuron cells.
Procedure: Total RNA from different sensory neuron cells was extracted by RNeasy Mini or Micro Kit (QIAGEN), and cDNA was synthesized from 1 mg RNA by SuperScript III First-Strand Synthesis System (Invitrogen). SYBR Premix Ex Taq (TaKaRa) and Thermal Cycler Dice Real Time System (TaKaRa) were used for labeling and reaction of Quantitative PCR, and beta-Actin was used as internal control. All data were analyzed by delta-Ct method. Triplicates were used for each group of experiments, and statistics were performed with ANOVA.
Series [3] is described as follows: Osmotic pressure of the culture system by freezing point osmometer. Type of series: physicochemical. On the procedure: In order to observe the effect of different concentrations of glycine-glutamine monohydrate on osmotic pressure, the effect of different concentrations of glycine-glutamine monohydrate on the osmotic pressure of culture system was detected by using an automatic freezing point osmometer (FM-8P, Shanghai Medical University Instrument Co., Ltd.), and specific operations were performed according to the product manual (FM-8P, Shanghai Medical University Instrument Co., Ltd.).

In the next series the target is T1, sodium ion channel 1.7 (Homo sapiens, UniProt Q15858).
T1 construct: endogenous in cells; host or cells: sensory neurons induced from human fibroblast-derived iPSCs
T1 sequence (Q15858 whole entry): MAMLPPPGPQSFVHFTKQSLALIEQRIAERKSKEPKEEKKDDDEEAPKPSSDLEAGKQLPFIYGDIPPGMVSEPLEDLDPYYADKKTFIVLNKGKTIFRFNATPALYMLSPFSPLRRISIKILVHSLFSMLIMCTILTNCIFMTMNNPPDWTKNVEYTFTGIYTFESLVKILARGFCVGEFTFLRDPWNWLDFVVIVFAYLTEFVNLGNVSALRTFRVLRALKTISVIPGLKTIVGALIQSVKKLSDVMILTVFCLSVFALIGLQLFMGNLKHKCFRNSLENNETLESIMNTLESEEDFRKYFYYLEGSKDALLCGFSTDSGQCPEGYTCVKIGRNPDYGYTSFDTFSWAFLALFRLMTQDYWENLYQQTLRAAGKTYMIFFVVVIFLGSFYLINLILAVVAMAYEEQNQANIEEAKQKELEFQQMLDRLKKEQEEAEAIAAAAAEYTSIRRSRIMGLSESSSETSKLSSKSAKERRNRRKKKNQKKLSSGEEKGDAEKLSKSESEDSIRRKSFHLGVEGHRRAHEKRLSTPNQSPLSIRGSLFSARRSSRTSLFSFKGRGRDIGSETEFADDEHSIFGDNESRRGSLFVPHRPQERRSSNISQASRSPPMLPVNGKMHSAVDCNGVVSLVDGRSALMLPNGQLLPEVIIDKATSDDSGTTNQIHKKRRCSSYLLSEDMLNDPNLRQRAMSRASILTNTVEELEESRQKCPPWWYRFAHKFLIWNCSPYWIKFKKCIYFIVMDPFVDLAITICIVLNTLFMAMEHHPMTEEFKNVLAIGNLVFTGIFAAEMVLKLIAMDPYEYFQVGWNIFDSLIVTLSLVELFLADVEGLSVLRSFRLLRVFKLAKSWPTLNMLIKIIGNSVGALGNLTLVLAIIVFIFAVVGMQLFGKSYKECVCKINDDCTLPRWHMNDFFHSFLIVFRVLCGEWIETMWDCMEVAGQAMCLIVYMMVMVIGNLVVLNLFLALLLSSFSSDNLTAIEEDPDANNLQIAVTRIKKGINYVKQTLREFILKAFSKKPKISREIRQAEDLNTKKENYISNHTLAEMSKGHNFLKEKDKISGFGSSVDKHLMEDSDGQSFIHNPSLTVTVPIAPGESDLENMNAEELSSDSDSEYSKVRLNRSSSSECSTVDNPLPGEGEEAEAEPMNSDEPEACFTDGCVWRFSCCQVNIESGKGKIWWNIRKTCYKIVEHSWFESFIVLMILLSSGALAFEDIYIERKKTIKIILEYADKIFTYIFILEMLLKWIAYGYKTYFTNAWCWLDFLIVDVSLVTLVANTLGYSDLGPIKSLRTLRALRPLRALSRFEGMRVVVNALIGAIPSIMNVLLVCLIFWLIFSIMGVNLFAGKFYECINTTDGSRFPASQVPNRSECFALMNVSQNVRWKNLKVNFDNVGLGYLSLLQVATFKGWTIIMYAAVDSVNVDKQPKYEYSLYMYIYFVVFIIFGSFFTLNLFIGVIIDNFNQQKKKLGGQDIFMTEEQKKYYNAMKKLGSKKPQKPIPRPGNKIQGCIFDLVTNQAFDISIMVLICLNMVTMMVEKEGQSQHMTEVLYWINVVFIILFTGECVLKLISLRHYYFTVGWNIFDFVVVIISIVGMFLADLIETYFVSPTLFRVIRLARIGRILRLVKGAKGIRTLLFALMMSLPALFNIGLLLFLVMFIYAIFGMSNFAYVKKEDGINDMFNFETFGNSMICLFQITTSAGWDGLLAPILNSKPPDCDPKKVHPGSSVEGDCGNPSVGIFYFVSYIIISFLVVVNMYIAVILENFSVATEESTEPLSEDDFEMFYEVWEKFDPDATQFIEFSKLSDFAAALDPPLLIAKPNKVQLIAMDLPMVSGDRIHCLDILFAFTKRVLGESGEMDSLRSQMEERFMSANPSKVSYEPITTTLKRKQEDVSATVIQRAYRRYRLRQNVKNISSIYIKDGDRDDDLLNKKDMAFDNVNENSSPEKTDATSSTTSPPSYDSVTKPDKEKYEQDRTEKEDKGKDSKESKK
Nature of the series: MEA spontaneous discharge after PF-05089771. Type of series: cell-based. Conditions: for electrophysiological strength of sodium ion channels of induced cells: various concentrations in induction/culture medium, after 1 μM PF-05089771, fibroblast-derived.

Series [4] concerns sensory nerve precursor cells from CD34+-derived cells. In words: Induction of sensory nerve precursor cells with different small molecules (morphology, Q-PCR of precursor markers). Type of series: cell-based, human. Conditions: 5 μM in induction medium. On the procedure: When the induced pluripotent stem cells reached 70% coverage, they were digested with 0.05% trypsin/EDTA for 5 min at 37° C., and the cell digestion was terminated by using DMEM. After the cells were washed and centrifuged, they were re-seeded in a T25 culture plate at 2×10^5 per flask, and cultured in a sensory neuron induction medium at 37° C., 5% CO2 (Panasonic, MCO-18AC) for 10 days until the formation of neural plate, which confirmed the formation of sensory nerve precursor cells.
All data were analyzed by delta-Ct method.
(5.2) Taking CD34+-derived cells as an example, different small molecules (5 μM RepSox, 5 μM SB525334 and 5 μM TEW-7197 molecules) were used to replace the LY2157299 in the sensory neuron induction medium N2GS212I-2 in Section (3.1) of Example 3; steps in Section (3.1) of Example 3 were repeated to observe the effects of different small molecules on the induced sensory nerve precursor cells.
(5.3) Taking CD34+-derived cells as an example, steps of Example 4 (4.3) were repeated by using the sensory nerve precursor cells obtained in (5.2), and the effects of different small molecules on the expression of neuronal precursor cell markers during the formation of sensory nerve precursor cells were observed. As shown in the figures, the different inhibitor molecules were not only able to form neuron precursor cells (forming a neural plate structure shown in the figure), but also able to increase the expressions of neuron precursor cell markers.

Series [5] deals with induced sensory neurons derived from fibroblasts. In words: Cyquant cell viability assay. Conditions: day 1, 3, 5, 10; different concentrations of NT3. Type of series: cell-based, human. On the procedure:
The cell viability was quantitatively detected by Cyquant assay to compare the effects of different combinations of small molecule compounds on maintaining physiological states of cells during long-term culture of induced sensory neurons.
Cell plate coating was performed in a 96-well opaque cell culture plate according to the method in Example 4 (4.4.1). […] The cells were cultured in the sensory neuron cell induction medium of Example 3 with different concentrations of NT3, and the culture conditions were 37° C., 5% carbon dioxide, and the medium was half quantity changed every three days. The medium in the known method was used as a control group. Samples were taken at day 1, day 3, day 5 and day 10, respectively, and the cell viability detection was carried out by using CyQuant Kit (Invitrogen, X12223) according to the instruction manual, and date were read by SpectraMax i3 Multi-Mode Microplate Reader (VWR, ID3-STD).

`C[C@H](NC(=O)Cc1cc(F)cc(F)c1)C(=O)N[C@H](C(=O)OC(C)(C)C)c1ccccc1` [DAPT]: the axon formation entry in series [1] is on record as “able to form axons”. Moreover, the “induced neuron cell markers and peripheral sensory neuron cell markers” value in series [2] (DAPT lower than 3 μM) is recorded as “much lower than those in the serum control group”. Also, in series [2] (DAPT more than 10 μM), the “expression of neuron marker Tuj” value is recorded as “increased” and the “expression of sodium ion channel 1.8 (SCN10A)” value is reported as “decreased”.
Turning to `O=S(=O)(O)CCN1CCN(CCO)CC1` [HEPES buffer, HEPES], the cell morphology entry in series [1] (HEPES buffer 5 mM, 10 mM, 15 mM) is “morphologically normal”. Moreover, the cell tolerance result in series [1] (high concentration (15 mM)) is “cell intolerance began to appear”. The “osmotic pressure with increase of concentration” value in series [3] (HEPES buffer in medium) is listed as “increased linearly”. The “osmotic pressure of the culture system” value in series [3] (concentration more than 15 mM) is given as greater than 320 mOsm/kg.
`c1ccc2c(-c3cnn4cc(-c5ccc(N6CCNCC6)cc5)cnc34)ccnc2c1` [LDN193189]: the “induction of cell types with neural axons” value in series [1] (12 nM, 50 nM and 180 nM) is reported as “cell types with neural axons can be induced”. In addition, the “expression of Caspase3 relative to serum control group” value in series [2] (LDN193189 180 nM or more) is listed as “more than 1.5 times”. Further, in series [2] (LDN193189 below 12 nM), the “expression of sodium ion channel 1.8 (SCN10A)” value is “lower than that in serum control”.
As for `Cc1cccc(-c2nn3c(c2-c2ccnc4ccc(C(N)=O)cc24)CCC3)n1` [LY2157299], the “expressions of SCN9A and SCN11A compared with the serum induction method” value in series [2] (7.5 μM and 25 μM) is given as “significantly increased”. Moreover, the “expression of various sodium ion channel proteins versus concentration” value in series [2] (Q-PCR, different LY2157299 concentrations in induction medium) is “linear increase in concentration versus protein expression”. The “ion channel protein expressions” value in series [2] (concentrations of below 50 nM) was “significantly lower than normal levels”. Moreover, the “antagonism against PF-05089771 of the induced neurons” value on sodium ion channel 1.7 (neurons induced by using LY2157299, 1 μM PF-05089771) was “more antagonism against PF-05089771”. The “electrophysiological strength of sodium ion channels of induced cells” value on sodium ion channel 1.7 is “significantly improved”. In series [4], the “formation of neuron precursor cells (neural plate structure)” value (“formation of neuron precursor cells” for short) is “neuron precursor cells formed”.
Turning to `Cc1cccc(-c2[nH]ncc2-c2ccc3ncccc3n2)n1` [RepSox], the “formation of neuron precursor cells” value in series [4] is “neuron precursor cells formed”.
The same measure, in the same setting: next, `Cc1cccc(-c2[nH]c(C(C)(C)C)nc2-c2ccc3nccnc3c2)n1` [SB525334]: “neuron precursor cells formed”.
Regarding `Cc1c[nH]c(/C=C2\C(=O)Nc3ccccc32)c1CCC(=O)O` [SU5402], the axon formation result in series [1] is listed as “could form axons”. Moreover, the “cell death marker CASP3” value in series [2] (SU5402 higher than 15 μM) is recorded as “significantly increased”. The “expression of ion channel protein compared with serum induction method” value in series [2] (SU5402 lower than 3 μM) is listed as “lower than the control level”. On sodium ion channel 1.7, the “electrophysiological strength of sodium ion channels of induced cells” value was “significantly improved”.
As to `Cc1cccc(-c2[nH]c(CNc3ccccc3F)nc2-c2ccc3ncnn3c2)n1` [TEW-7197], the “formation of neuron precursor cells” value in series [4] is on record as “neuron precursor cells formed”.
As to CHIR98014, in series [2], the “expression of SCN11A (Nav1.9) compared with the serum induction method” value was “significantly increased”, the “expression of ion channel protein” value is given as “lower than normal level” and the “expression of neuron marker Tuj” value is “lower than that at other concentrations”.

B1: NT3: human-NT3 (Novoprotein, Cat. No. C079), added to sensory neuron cell medium (protein, UniProt P20783 139-257, looked up)
Neurotrophin-3: YAEHKSHRGEYSVCDSESLWVTDKSSAIDIRGHQVTVLGEIKTGNSPVKQYFYETRCKEARPVKNGCRGIDDKHWNSQCKTSQTYVRALTSENNKLVGWRWIRIDTSCVCALSRKIGRT
modifications: Neurotrophin-3
notes: human-NT3 (Novoprotein, Cat. No. C079), added to sensory neuron cell medium
Take B1: the “in vitro viability of induced neurons in long-term culture vs serum induction method” value in series [5] is recorded as “effectively increase the in vitro viability”.

These data come from patent US20230235282A1, “SERUM-FREE INDUCTION METHOD FOR SENSORY NEURON CELL” (IREGENE THERAPEUTICS LTD, priority 2020, published 2023).
